Source: patent US7153815B2, “Insecticide containing hydrazone derivative as the active ingredient and novel hydrazone derivative” (Nihon Nohyaku Co., Ltd., priority 2002, dated 2006)

Columns and labels:
[1] = tested on: larvae of cabbage moth (Plutella xylostera); test: Insecticidal effect against larvae of cabbage moth (leaf immersion); format: in vivo
Procedure: Insecticidal Effect Against Larvae of Cabbage Moth (Plutella xylostera)
(§1) A piece of cabbage leaf (diameter: 6 cm) was immersed for 1 minute in a water-diluted solution of the insecticide (wettable powder) of the present invention prepared according to the prescription of Formulation Example 1. After immersion, the cabbage was air-dried and placed in a plastic cup (inner diameter: 7 cm), and then inoculated with 5 larvae of cabbage moth in the third stage therein (1-concentration, 2-repetion). The cup was allowed to stand in a room thermostated at 25° C. Four days after the inoculation, dead or alive larvae or suffuring larvae were counted, and mortality (%) was calculated wherein a suffering larva was regarded as 0.5 dead larva. When compounds of Compound Nos. described below were subjected to the test, the mortality was 100% in a compound concentration of 500 ppm. In the meanwhile, the Compounds Nos. correspond to ones in Tables 1 to 8.

[2] = tested on: larvae of common cutworm (Spodoptera litura); test: Insecticidal effect against larvae of common cutworm (leaf immersion); format: in vivo; details: in Brassica oleracea
Procedure: Insecticidal Effect Against Larvae of Common Cutworm (Spodoptera litura)
as §1, with “powder),of” for “powder) of”, “common cutworm” for “cabbage moth”

SMILES	mortality at 500 ppm [1] [%]	mortality at 500 ppm [2] [%]
O=C(NCc1ccc(Cl)nc1)C(Cl)=NNc1ccc(C(F)(F)F)cc1 [Compound No. 5, N-(6-chloro-3-pyridylmethyl)-2-chloro-2-(4-trifluoromethylphenyl hydrazono) acetic acid amide]	100	–
C/C(=N\Nc1ccc(Cl)cc1)C(=O)NNc1ccc(Cl)cc1 [Compound No. 104, (E)-N′-(4-chlorophenyl)-2-(4-chlorophenyl hydrazono) propionic acid hydrazide]	100	100
COc1ccc(CNC(=O)C(C)=NNc2ccc(Cl)cc2)cc1 [Compound No. 93, N-(4-methoxybenzyl)-2-(4-chlorophenyl hydrazono) propionic acid amide]	100	–
CC(=NN(C)c1ccc(C(F)(F)F)cc1)C(=O)NCc1ccc(Cl)cc1 [Compound No. 109, N-(4-chlorobenzyl)-2-[N-methyl-N-(4-trifluoromethylphenyl) hydrazono]propionic acid amide]	100	100
C/C(=N/Nc1ccc(Cl)cc1)C(=O)NNc1ccc(Cl)cc1 [Compound No. 105, (Z)-N′-(4-chlorophenyl)-2-(4-chlorophenyl hydrazono) propionic acid hydrazide]	100	100
CC(=NN(C)c1ccc(C(F)(F)F)cc1)C(=O)NCc1ccc(Cl)nc1 [Compound No. 110, N-(6-chloro-3-pyridylmethyl)-2-[N-methyl-N-(4-trifluoromethylphenyl) hydrazono]propionic acid amide]	100	100
CC(=NNc1ccc(C(F)(F)F)cc1)C(=O)NCc1ccc(Cl)nc1 [Compound No. 63, N-(6-chloro-3-pyridylmethyl)-2-(4-trifluoromethylphenyl hydrazono) propionic acid amide]	100	100
N#CC(=NNc1ccc(C(F)(F)F)cc1)C(=O)NCc1ccc(Cl)nc1 [Compound No. 184, N-(6-chloro-3-pyridylmethyl)-2-cyano-2-(4-trifluoromethylphenyl hydrazono) acetic acid amide]	100	100
CC(=NNc1ccc(C(F)(F)F)cc1)C(=O)NCc1ccc(Cl)cc1 [Compound No. 62, N-(4-chlorobenzyl)-2-(4-trifluoromethylphenyl hydrazono) propionic acid amide]	100	100
CCOCC(=NNc1ccc(C(F)(F)F)cc1)C(=O)NCc1ccc(Cl)nc1 [Compound No. 170, N-(6-chloro-3-pyridylmethyl)-3-ethoxy-2-(4-trifluoromethylphenyl hydrazono) propionic acid amide]	100	–
CNC(=NNc1ccc(C(F)(F)F)cc1)C(=O)NCc1ccc(Cl)nc1 [Compound No. 191, N-(6-chloro-3-pyridylmethyl)-2-methylamino-2-(4-trifluoromethylphenyl hydrazono) acetic acid amide]	100	100
